Experimental data reported in PubChem BioAssay AID1996.
≈ marks a conversion by molar mass, not a printed value.

Details: buffer; pH 7.4; 200.0 µM

| Compound | solubility kinetic [µg/mL] |
| --- | --- |
| O=C(CNC(=O)c1ccco1)Nc1ccc2c(c1)OCCO2 | > 45.3 |
| C=CCNc1nc(Cl)nc(NCc2ccco2)n1 | 1.9 (≈ 7.15 µM) |
| CC1(C)CC(=O)C(=CN2CCOCC2)C(=O)C1 | > 35.6 |
| O=C(COC(=O)/C=C/c1ccc(Br)o1)Nc1cccc(S(=O)(=O)N2CCOCC2)c1 | 5.9 (≈ 11.8 µM) |
| COCCNC(=O)Cc1c(C)c2c(cc(C)c3c(C(C)(C)C)coc32)oc1=O | 3.2 (≈ 8.3 µM) |
| CCOc1ccccc1C(=O)NC1CCNCC1 | > 37.2 |
| O=C(CSc1ccc2c(c1)OCCO2)Nc1cccnc1 | > 45.4 |
| O=C(COC(=O)Cc1ccsc1)Nc1cccc(Cl)c1 | > 46.5 |
| Cn1c(=O)c2c(nc(N3CCCC3)n2C)n(C)c1=O | > 39.5 |
| CCOC(=O)/C(=C/c1ccc(OC(=O)c2ccncc2)cc1)C(C)=O | 41.8 (≈ 123 µM) |
| O=C(CSc1nc2ccccc2o1)NC1CCCC1 | > 41.5 |
| O=C(/C=C/c1cccc([N+](=O)[O-])c1)N1CCN(c2ccccn2)CC1 | 3.1 (≈ 9.16 µM) |
| CN(CC(=O)Nc1ccc2c(c1)OCCO2)CC(=O)Nc1ccc(F)c(F)c1F | > 61.4 |
| COC(=O)[C@H](C)NC(=O)N1CCC(Cc2ccccc2)CC1 | > 45.7 |
| O=C(NC1=NCCS1)c1cccc(OC(F)F)c1 | 23.9 (≈ 87.8 µM) |
| O=C1CSC(=S)N1 | > 20 |
| O=C(COC(=O)C12CC3CC(CC(Cl)(C3)C1)C2)Nc1ccccc1 | 5.9 (≈ 17 µM) |
| Cl.O=S1(=O)CCC(NC2CCCC2)C1 (centres undefined) | > 36 |
| N#Cc1ccccc1S(=O)(=O)N1CCN(C(=O)C2CCCC2)CC1 | > 52.1 |
| O=C1CCC([N+](=O)[O-])C(c2ccc(C(F)(F)F)cc2)N1 (centres undefined) | > 43.2 |
| COCCCNC(=O)c1cc(S(=O)(=O)NCCCN2CCCC2=O)ccc1Cl | > 64.8 |
| CCc1ccc2[nH]c(C)c(CN3CCCCCC3)c(=O)c2c1 | > 44.8 |
| Cc1noc(C)c1C(=O)OCC(=O)Nc1ccc(C(N)=O)cc1 | 42.2 (≈ 133 µM) |
| Cc1cnc(C(=O)OCc2nc3ccsc3c(=O)[nH]2)cn1 | 45.3 (≈ 150 µM) |
| Cn1cccc1C(=O)NCc1ccc(S(N)(=O)=O)cc1 | > 44 |
| CC(Nc1cccc(F)c1)C(=O)Nc1ccc(S(N)(=O)=O)cc1 (centres undefined) | > 50.6 |
| Cc1onc(-c2c(Cl)cccc2Cl)c1/C(N)=N/OC(=O)C1CC1 | 47.1 (≈ 133 µM) |
| CCOC(=O)N1CCN(C(=O)c2cc3ccccc3o2)CC1 | > 45.3 |
| CCC(C)[C@H](NC(=O)NCCCOC(C)C)C(=O)OC (some centres undefined) | > 43.3 |
| COc1ccc(NC(=O)CN2CCN(S(=O)(=O)N(C)C)CC2)cc1 | > 53.5 |

Next, values leading:

| solubility kinetic [µg/mL] | Compound |
| --- | --- |
| > 42.8 | O=C1CSC(c2ccccc2O)N1Cc1ccccc1 (centres undefined) |
| 16.2 (≈ 75.6 µM) | O=C(Nc1ccccc1)Nc1cnccn1 |
| 27.8 (≈ 116 µM) | Nc1ccccc1Sc1c[nH]c2ccccc12 |
| 32.6 (≈ 115 µM) | CCC(C(=O)NCc1ccccc1OC)c1ccccc1 (centres undefined) |
| < 0.7 | O=C(NCc1ccccc1Cl)c1cc2ccccc2oc1=O |
| 2.5 (≈ 11 µM) | Cc1cccc(NC(=O)Nc2ccccc2)n1 |
| 0.1 (≈ 0.29 µM) | Nc1nc(NCc2ccco2)nc(Nc2ccc(F)cc2)c1[N+](=O)[O-] |
| 6.4 (≈ 22.5 µM) | CC(=O)c1cccc(NC(=S)NCc2ccccc2)c1 |
| > 28.1 | Nc1ncnc(Nc2ccccc2)n1 |
| 34.7 (≈ 120 µM) | CCSCc1nc(N)nc(NCCc2ccccc2)n1 |
| > 40.7 | Nc1ccc(N2CCN(c3ccccc3)CC2)c(F)c1 |
| > 49.3 | Cc1ccc(CC2C(=O)N(c3cc(Cl)ccn3)C(=O)C2C)cc1 (centres undefined) |
| 10.1 (≈ 35.9 µM) | COc1ccccc1CNC(=O)c1cc2ccccc2o1 |
| 6.1 (≈ 21.5 µM) | O=C1/C(=C/c2ccc([N+](=O)[O-])cc2)Oc2cc(O)ccc21 |
| > 33.5 | Cc1ccc(-c2ccnc3cc(C)nn23)cc1 |
| > 45.5 | O=C(NCCNc1ccccc1[N+](=O)[O-])c1ccccc1F |
| > 57.7 | O=C(COC(=O)CNC(=O)c1ccc(F)cc1)NC1CCCc2ccccc21 (centres undefined) |
| 29.9 (≈ 90.5 µM) | CC(=O)c1ccccc1NS(=O)(=O)c1ccc2c(c1)CC(=O)N2 |
| > 50.8 | O=C(NC1CC2CCC(C1)N2Cc1ccccc1)c1cccc(F)c1 (centres undefined) |
| > 53.8 | Cc1ccc(S(=O)(=O)N2CCC[C@H]2C(=O)Nc2ccccc2C)cc1 |
| 0.5 (≈ 1.5 µM) | CC(=O)N/C(=N\c1nc(C)cc(C)n1)Nc1ccc2ccccc2c1 |
| > 45.5 | COc1cccc(CN2CCc3[nH]c(=S)[nH]c(=O)c3C2)c1 |
| < 0.1 | Clc1cc(Cl)cc(Nc2ncnc(-n3cccc3)n2)c1 |
| 0.7 (≈ 2.19 µM) | COc1ccc(CC(=O)NC(C)c2ccc3ccccc3c2)cc1 (centres undefined) |
| 10.6 (≈ 31.8 µM) | COc1ccccc1-n1cc(-c2ccccc2)c2c(=S)nc[nH]c21 |
| 0.4 (≈ 1.27 µM) | O=C1/C(=C/c2ccccn2)SC(=S)N1c1cccc(O)c1 |
| 0.7 (≈ 2.09 µM) | Cc1ccc(C)c(NC(=O)C(=O)NCCc2c[nH]c3ccccc23)c1 |
| 1.2 (≈ 3.36 µM) | O=C(Nc1ccc(Nc2ccccc2)cc1)c1c(Cl)cccc1Cl |
| 38.2 (≈ 149 µM) | Clc1ncn(CCOc2ccccc2)c1Cl |
